Assay results taken from ChEMBL document CHEMBL3751693, “Synthesis, antimicrobial evaluation and molecular modeling of 5-hydroxyisoquinolinium salt series; the effect of the hydroxyl moiety” (Bioorg Med Chem, 2016).

Tests used:
[1] = tested on: Nakaseomyces glabratus; experiment: Antimicrobial activity against Candida glabrata 20/I after 24 hrs by spectrophotometry; assay type: functional
[2] = tested on: Aspergillus fumigatus; experiment: Antimicrobial activity against Aspergillus fumigatus 231 after 24 hrs by spectrophotometry; assay type: functional; details: Aspergillus fumigatus, 231, 24 h
[3] = Cytotoxicity against CHOK1 cells after 24 hrs by MTT assay; assay type: cell-based; details: Cricetulus griseus, CHO-K1, 24 h
[4] = tested on: Staphylococcus epidermidis; experiment: Antimicrobial activity against clinical isolate Staphylococcus epidermidis H 696608 after 24 hrs; assay type: functional; details: H 696608, 24 h
[5] = tested on: Staphylococcus aureus; experiment: Antimicrobial activity against clinical isolate methicillin-resistant Staphylococcus aureus H 599608 after 48 hrs; assay type: functional; details: H 599608, 48 h
[6] = tested on: Candida tropicalis; experiment: Antimicrobial activity against Candida tropicalis 156 after 24 hrs by spectrophotometry; assay type: functional; details: Candida tropicalis, 156, 24 h
[7] = tested on: Pichia kudriavzevii; experiment: Antimicrobial activity against Candida krusei E28 after 48 hrs by spectrophotometry; assay type: functional; details: E28, 48 h
[8] = tested on: Lichtheimia corymbifera; experiment: Antimicrobial activity against Absidia corymbifera 272 after 24 hrs by spectrophotometry; assay type: functional; details: Lichtheimia corymbifera, 272, 24 h
[9] = tested on: Klebsiella pneumoniae; experiment: Antimicrobial activity against clinical isolate ESBL-Klebsiella pneumoniae J 1436808 after 24 hrs; assay type: functional; details: J 1436808, 24 h
[10] = tested on: Klebsiella pneumoniae; experiment: Antimicrobial activity against clinical isolate ESBL-Klebsiella pneumoniae J 1436808 after 48 hrs; assay type: functional; details: J 1436808, 48 h
[11] = tested on: Lichtheimia corymbifera; experiment: Antimicrobial activity against Absidia corymbifera 272 after 48 hrs by spectrophotometry; assay type: functional; details: Lichtheimia corymbifera, 272, 48 h
[12] = tested on: Pichia kudriavzevii; experiment: Antimicrobial activity against Candida krusei E28 after 24 hrs by spectrophotometry; assay type: functional; details: E28, 24 h
[13] = tested on: Trichosporon asahii; experiment: Antimicrobial activity against Trichosporon asahii 1188 after 48 hrs by spectrophotometry; assay type: functional; details: Trichosporon asahii, 1188, 48 h
[14] = tested on: Staphylococcus aureus; experiment: Antimicrobial activity against clinical isolate Staphylococcus aureus CCM 451608 after 24 hrs; assay type: functional; details: CCM 451608, 24 h
[15] = tested on: Aspergillus fumigatus; experiment: Antimicrobial activity against Aspergillus fumigatus 231 after 48 hrs by spectrophotometry; assay type: functional; details: Aspergillus fumigatus, 231, 48 h
[16] = tested on: Candida albicans; experiment: Antimicrobial activity against Candida albicans ATCC 44859 after 24 hrs by spectrophotometry; assay type: functional; details: ATCC 44859, 24 h
[17] = tested on: Escherichia coli; experiment: Antimicrobial activity against clinical isolate Escherichia coli CCM 4517 after 48 hrs; assay type: functional; details: CCM 4517, 48 h
[18] = tested on: Pseudomonas aeruginosa; experiment: Antimicrobial activity against clinical isolate Pseudomonas aeruginosa CCM 1961 after 120 hrs; assay type: functional; details: CCM 1961, 120 h
[19] = tested on: Klebsiella pneumoniae; experiment: Antimicrobial activity against clinical isolate Klebsiella pneumoniae D 1175008 after 24 hrs; assay type: functional; details: D 1175008, 24 h
[20] = tested on: Trichophyton mentagrophytes; experiment: Antimicrobial activity against Trichophyton mentagrophytes 445 after 120 hrs by spectrophotometry; assay type: functional; details: Trichophyton mentagrophytes, 445, 120 h
[21] = tested on: Staphylococcus aureus; experiment: Antimicrobial activity against clinical isolate methicillin-resistant Staphylococcus aureus H 599608 after 24 hrs; assay type: functional; details: H 599608, 24 h
[22] = tested on: Enterococcus sp.; experiment: Antimicrobial activity against clinical isolate Enterococcus sp. J 1436508 after 48 hrs; assay type: functional; details: J 1436508, 48 h
[23] = tested on: Enterococcus sp.; experiment: Antimicrobial activity against clinical isolate Enterococcus sp. J 1436508 after 24 hrs; assay type: functional; details: J 1436508, 24 h
[24] = tested on: Escherichia coli; experiment: Antimicrobial activity against clinical isolate Escherichia coli CCM 4517 after 24 hrs; assay type: functional; details: CCM 4517, 24 h
[25] = tested on: Staphylococcus aureus; experiment: Antimicrobial activity against clinical isolate Staphylococcus aureus CCM 451608 after 48 hrs; assay type: functional; details: CCM 451608, 48 h
[26] = tested on: Staphylococcus epidermidis; experiment: Antimicrobial activity against clinical isolate Staphylococcus epidermidis H 696608 after 48 hrs; assay type: functional; details: H 696608, 48 h
[27] = tested on: Trichosporon asahii; experiment: Antimicrobial activity against Trichosporon asahii 1188 after 24 hrs by spectrophotometry; assay type: functional; details: Trichosporon asahii, 1188, 24 h
[28] = tested on: Candida tropicalis; experiment: Antimicrobial activity against Candida tropicalis 156 after 48 hrs by spectrophotometry; assay type: functional; details: Candida tropicalis, 156, 48 h
[29] = tested on: Nakaseomyces glabratus; experiment: Antimicrobial activity against Candida glabrata 20/I after 48 hrs by spectrophotometry; assay type: functional
[30] = tested on: Klebsiella pneumoniae; experiment: Antimicrobial activity against clinical isolate Klebsiella pneumoniae D 1175008 after 48 hrs; assay type: functional; details: D 1175008, 48 h
[31] = tested on: Trichophyton mentagrophytes; experiment: Antimicrobial activity against Trichophyton mentagrophytes 445 after 72 hrs by spectrophotometry; assay type: functional; details: Trichophyton mentagrophytes, 445, 72 h
[32] = tested on: Pseudomonas aeruginosa; experiment: Antimicrobial activity against clinical isolate Pseudomonas aeruginosa CCM 1961 after 72 hrs; assay type: functional; details: CCM 1961, 72 h
[33] = tested on: Candida albicans; experiment: Antimicrobial activity against Candida albicans ATCC 44859 after 48 hrs by spectrophotometry; assay type: functional; details: ATCC 44859, 48 h

CCCCCCCCCCCC[n+]1ccc2c(O)cccc2c1
MIC [1]: 3.9 µM | MIC [2]: 31 µM | IC50 [3]: 36 µM | MIC [4]: 3.9 µM | MBC [5]: 3.9 µM | MIC [5]: 3.9 µM | MIC [6]: 31 µM | MFC [7]: 7.8 µM | MIC [7]: 7.8 µM | MIC [8]: 125 µM | MIC [9]: 63 µM | MBC [10]: 63 µM | MIC [10]: 63 µM | MFC [11]: 250 µM | MIC [11]: 125 µM | MIC [12]: 7.8 µM | MFC [13]: 31 µM | MIC [13]: 31 µM | MIC [14]: 1 µM | MFC [15]: 250 µM | MIC [15]: 31 µM | MIC [16]: 63 µM | MBC [17]: 250 µM | MIC [17]: 250 µM | MBC [18]: 63 µM | MIC [18]: 63 µM | MIC [19]: 63 µM | MFC [20]: 63 µM | MIC [20]: 31 µM | MIC [21]: 3.9 µM | MBC [22]: 63 µM | MIC [22]: 63 µM | MIC [23]: 63 µM | MIC [24]: 250 µM | MBC [25]: 2 µM | MIC [25]: 1 µM | MBC [26]: 3.9 µM | MIC [26]: 3.9 µM | MIC [27]: 31 µM | MFC [28]: 63 µM | MIC [28]: 31 µM | MFC [29]: 7.8 µM | MIC [29]: 3.9 µM | MBC [30]: 63 µM | MIC [30]: 63 µM | MIC [31]: 31 µM | MIC [32]: 63 µM | MFC [33]: 63 µM | MIC [33]: 63 µM

CCCCCCCCCCCCCCCC[n+]1ccc2c(O)cccc2c1
MIC [1]: 3.9 µM | MIC [2]: > 500 µM | IC50 [3]: 16 µM | MIC [4]: 63 µM | MBC [5]: 0.5 µM | MIC [5]: 0.5 µM | MIC [6]: 7.8 µM | MFC [7]: 7.8 µM | MIC [7]: 7.8 µM | MIC [8]: > 500 µM | MIC [9]: > 500 µM | MBC [10]: > 500 µM | MIC [10]: 500 µM | MFC [11]: > 500 µM | MIC [11]: > 500 µM | MIC [12]: 7.8 µM | MFC [13]: 125 µM | MIC [13]: 63 µM | MIC [14]: 0.5 µM | MFC [15]: > 500 µM | MIC [15]: > 500 µM | MIC [16]: 16 µM | MBC [17]: > 500 µM | MIC [17]: > 500 µM | MBC [18]: > 500 µM | MIC [18]: > 500 µM | MIC [19]: > 500 µM | MFC [20]: 125 µM | MIC [20]: 16 µM | MIC [21]: 0.5 µM | MBC [22]: 63 µM | MIC [22]: 63 µM | MIC [23]: 63 µM | MIC [24]: > 500 µM | MBC [25]: 0.5 µM | MIC [25]: 0.5 µM | MBC [26]: 63 µM | MIC [26]: 63 µM | MIC [27]: 63 µM | MFC [28]: 7.8 µM | MIC [28]: 7.8 µM | MFC [29]: 3.9 µM | MIC [29]: 3.9 µM | MBC [30]: > 500 µM | MIC [30]: > 500 µM | MIC [31]: 16 µM | MIC [32]: > 500 µM | MFC [33]: 125 µM | MIC [33]: 16 µM

CCCCCCCCCCCC[n+]1ccc2ccccc2c1 [LAURYL ISOQUINOLINIUM BROMIDE]
MIC [1]: 0.5 µM | MIC [2]: 125 µM | IC50 [3]: 15 µM | MIC [4]: 0.5 µM | MBC [5]: 1 µM | MIC [5]: 0.5 µM | MIC [6]: 0.5 µM | MFC [7]: 1 µM | MIC [7]: 0.5 µM | MIC [8]: 250 µM | MIC [9]: 63 µM | MBC [10]: 125 µM | MIC [10]: 63 µM | MFC [11]: 250 µM | MIC [11]: 250 µM | MIC [12]: 0.5 µM | MFC [13]: 63 µM | MIC [13]: 63 µM | MIC [14]: 0.5 µM | MFC [15]: 125 µM | MIC [15]: 125 µM | MIC [16]: 0.5 µM | MBC [17]: 31 µM | MIC [17]: 7.8 µM | MBC [18]: 250 µM | MIC [18]: 250 µM | MIC [19]: 16 µM | MFC [20]: 16 µM | MIC [20]: 7.8 µM | MIC [21]: 0.5 µM | MBC [22]: 63 µM | MIC [22]: 7.8 µM | MIC [23]: 7.8 µM | MIC [24]: 7.8 µM | MBC [25]: 1 µM | MIC [25]: 0.5 µM | MBC [26]: 1 µM | MIC [26]: 0.5 µM | MIC [27]: 63 µM | MFC [28]: 1 µM | MIC [28]: 0.5 µM | MFC [29]: 1 µM | MIC [29]: 0.5 µM | MBC [30]: 63 µM | MIC [30]: 16 µM | MIC [31]: 7.8 µM | MIC [32]: 250 µM | MFC [33]: 1 µM | MIC [33]: 0.5 µM
